Data as given in the supplement of paper PMC9663587.

Columns and labels:
[1] = compound: CC(=O)c1c(C)c2cnc(Nc3ccc(N4CCNCC4)cn3)nc2n(C2CCCC2)c1=O; experiment: GR value, 72 h; higher = faster growth (1 = untreated, <0 = killing);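 further: breast cancer and non-malignant breast epithelial lines, nine half-log doses, viable cells counted by Hoechst and LIVE/DEAD dye imaging versus time-zero plates and DMSO controls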
THZ531 = compound: CN(C)C/C=C/C(=O)Nc1ccc(C(=O)N2CCC[C@@H](Nc3ncc(Cl)c(-c4c[nH]c5ccccc45)n3)C2)cc1 [THZ531]; experiment: as above
THZ1 [2] = compound: T1, CN(C)C/C=C/C(=O)Nc1ccc(C(=O)Nc2cccc(Nc3ncc(Cl)c(-c4c[nH]c5ccccc45)n3)c2)cc1 [THZ1]; experiment: as above
Flavopiridol [3] = compound: T2, CN1CC[C@H](c2c(O)cc(O)c3c(=O)cc(-c4ccccc4Cl)oc23)[C@H](O)C1 [Flavopiridol]; experiment: as above
Neratinib/HKI272 = compound: CCOc1cc2ncc(C#N)c(Nc3ccc(OCc4ccccn4)c(Cl)c3)c2cc1NC(=O)/C=C/CN(C)C [Neratinib/HKI272]; experiment: increase in dead-cell fraction, 72 h; higher = more death;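 further: breast cancer cell lines in 384-well plates, stained with Hoechst plus LIVE/DEAD far red dye and imaged, cells above an LDR intensity threshold counted dead, Hoechst-negative corpses included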
BSJ-03-123 = compound: CC(=O)c1c(C)c2cnc(Nc3ccc(N4CCN(CCOCCOCCOCCNC(=O)COc5cccc6c5C(=O)N(C5CCC(=O)NC5=O)C6=O)CC4)cn3)nc2n(C2CCCC2)c1=O [BSJ-03-123]; experiment: as above
[4] = compound: CC(=O)c1c(C)c2cnc(Nc3ccc(N4CCNCC4)cn3)nc2n(C2CCCC2)c1=O; experiment: as above
[5] = compound: CCN1CCN(Cc2ccc(Nc3ncc(F)c(-c4cc(F)c5nc(C)n(C(C)C)c5c4)n3)nc2)CC1; experiment: as above
THZ1 [6] = compound: T1, THZ1; experiment: as above
LEE011/Ribociclib = compound: CN(C)C(=O)c1cc2cnc(Nc3ccc(N4CCNCC4)cn3)nc2n1C1CCCC1 [LEE011/Ribociclib]; experiment: as above
[7] = compound: CCc1cnn2c(NCc3ccc[n+]([O-])c3)cc(N3CCCC[C@H]3CCO)nc12; experiment: as above
Flavopiridol [8] = compound: T2, Flavopiridol; experiment: as above

## HCC1937
[1]; 0.0003162 µM
  GR value: 1.04 GR
[1]; 0.001 µM
  GR value: 1.1 GR
[1]; 0.003162 µM
  GR value: 1.13 GR
[1]; 0.01 µM
  GR value: 1.1 GR
[1]; 0.03162 µM
  GR value: 1.06 GR
[1]; 0.1 µM
  GR value: 1.03 GR
[1]; 0.3162 µM
  GR value: 0.99 GR
[1]; 1 µM
  GR value: 1.07 GR
[1]; 3.162 µM
  GR value: 1.07 GR
THZ531; 0.0001 µM
  GR value: 0.85 GR
THZ531; 0.0003162 µM
  GR value: 1 GR
THZ531; 0.001 µM
  GR value: 0.958 GR
THZ531; 0.003162 µM
  GR value: 1.01 GR
THZ531; 0.01 µM
  GR value: 1.09 GR
THZ531; 0.03162 µM
  GR value: 1.16 GR
THZ531; 0.1 µM
  GR value: 0.954 GR
THZ531; 0.3162 µM
  GR value: 0.219 GR
THZ531; 1 µM
  GR value: -0.302 GR
THZ1 [2]; 0.0001 µM
  GR value: 0.926 GR
THZ1 [2]; 0.0003162 µM
  GR value: 0.922 GR
THZ1 [2]; 0.001 µM
  GR value: 0.98 GR
THZ1 [2]; 0.003162 µM
  GR value: 1.05 GR
THZ1 [2]; 0.01 µM
  GR value: 1.14 GR
THZ1 [2]; 0.03162 µM
  GR value: 0.808 GR
THZ1 [2]; 0.1 µM
  GR value: 0.104 GR
THZ1 [2]; 0.3162 µM
  GR value: -0.107 GR
THZ1 [2]; 1 µM
  GR value: -0.38 GR
Flavopiridol [3]; 0.0001 µM
  GR value: 1.08 GR
Flavopiridol [3]; 0.0003162 µM
  GR value: 1.02 GR
Flavopiridol [3]; 0.001 µM
  GR value: 0.946 GR
Flavopiridol [3]; 0.003162 µM
  GR value: 1.01 GR
Flavopiridol [3]; 0.01 µM
  GR value: 0.918 GR
Flavopiridol [3]; 0.03162 µM
  GR value: 1.01 GR
Flavopiridol [3]; 0.1 µM
  GR value: 0.691 GR
Flavopiridol [3]; 0.3162 µM
  GR value: 0.19 GR
Flavopiridol [3]; 1 µM
  GR value: -0.211 GR
Neratinib/HKI272; 0.0003162 µM
  increase in dead-cell fraction: 0.0017
Neratinib/HKI272; 0.001 µM
  increase in dead-cell fraction: 0.0031
Neratinib/HKI272; 0.003162 µM
  increase in dead-cell fraction: 0.0127
Neratinib/HKI272; 0.01 µM
  increase in dead-cell fraction: 0.0186
Neratinib/HKI272; 0.03162 µM
  increase in dead-cell fraction: 0.0314
Neratinib/HKI272; 0.1 µM
  increase in dead-cell fraction: 0.0326
Neratinib/HKI272; 0.3162 µM
  increase in dead-cell fraction: 0.0327
Neratinib/HKI272; 1 µM
  increase in dead-cell fraction: 0.0368
Neratinib/HKI272; 3.162 µM
  increase in dead-cell fraction: 0.0974
BSJ-03-123; 0.001 µM
  increase in dead-cell fraction: 0.001
BSJ-03-123; 0.003162 µM
  increase in dead-cell fraction: -0.0071
BSJ-03-123; 0.01 µM
  increase in dead-cell fraction: 0.0079
BSJ-03-123; 0.03162 µM
  increase in dead-cell fraction: 0
BSJ-03-123; 0.1 µM
  increase in dead-cell fraction: 0.0032
BSJ-03-123; 0.3162 µM
  increase in dead-cell fraction: -0.0022
BSJ-03-123; 1 µM
  increase in dead-cell fraction: -0.0018
BSJ-03-123; 3.162 µM
  increase in dead-cell fraction: -0.0018
BSJ-03-123; 10 µM
  increase in dead-cell fraction: 0.0245
[4]; 0.0003162 µM
  increase in dead-cell fraction: -0.0018
[4]; 0.001 µM
  increase in dead-cell fraction: -0.0051
[4]; 0.003162 µM
  increase in dead-cell fraction: 0.0021
[4]; 0.01 µM
  increase in dead-cell fraction: 0.0002
[4]; 0.03162 µM
  increase in dead-cell fraction: -0.0009
[4]; 0.1 µM
  increase in dead-cell fraction: -0.0009
[4]; 0.3162 µM
  increase in dead-cell fraction: -0.0038
[4]; 1 µM
  increase in dead-cell fraction: -0.0027
[4]; 3.162 µM
  increase in dead-cell fraction: -0.0018
[5]; 0.001 µM
  increase in dead-cell fraction: -0.0017
[5]; 0.003162 µM
  increase in dead-cell fraction: -0.0029
[5]; 0.01 µM
  increase in dead-cell fraction: -0.0019
[5]; 0.03162 µM
  increase in dead-cell fraction: -0.0004
[5]; 0.1 µM
  increase in dead-cell fraction: -0.0064
[5]; 0.3162 µM
  increase in dead-cell fraction: -0.0073
[5]; 1 µM
  increase in dead-cell fraction: -0.0012
[5]; 3.162 µM
  increase in dead-cell fraction: 0.0025
[5]; 10 µM
  increase in dead-cell fraction: 0.0559
THZ1 [6]; 0.0001 µM
  increase in dead-cell fraction: -0.0003
THZ1 [6]; 0.0003162 µM
  increase in dead-cell fraction: -0.0027
THZ1 [6]; 0.001 µM
  increase in dead-cell fraction: -0.0105
THZ1 [6]; 0.003162 µM
  increase in dead-cell fraction: -0.0045
THZ1 [6]; 0.01 µM
  increase in dead-cell fraction: -0.0053
THZ1 [6]; 0.03162 µM
  increase in dead-cell fraction: -0.0002
THZ1 [6]; 0.1 µM
  increase in dead-cell fraction: 0.06
THZ1 [6]; 0.3162 µM
  increase in dead-cell fraction: 0.0438
THZ1 [6]; 1 µM
  increase in dead-cell fraction: 0.104
LEE011/Ribociclib; 0.001 µM
  increase in dead-cell fraction: -0.0088
LEE011/Ribociclib; 0.003162 µM
  increase in dead-cell fraction: -0.0054
LEE011/Ribociclib; 0.01 µM
  increase in dead-cell fraction: -0.0115
LEE011/Ribociclib; 0.03162 µM
  increase in dead-cell fraction: -0.0122
LEE011/Ribociclib; 0.1 µM
  increase in dead-cell fraction: -0.0012
LEE011/Ribociclib; 0.3162 µM
  increase in dead-cell fraction: -0.0035
LEE011/Ribociclib; 1 µM
  increase in dead-cell fraction: -0.0021
LEE011/Ribociclib; 3.162 µM
  increase in dead-cell fraction: -0.0077
LEE011/Ribociclib; 10 µM
  increase in dead-cell fraction: 0.0003
[7]; 0.0001 µM
  increase in dead-cell fraction: 0.0021
[7]; 0.0003162 µM
  increase in dead-cell fraction: -0.0036
[7]; 0.001 µM
  increase in dead-cell fraction: 0.0015
[7]; 0.003162 µM
  increase in dead-cell fraction: -0.0021
[7]; 0.01 µM
  increase in dead-cell fraction: 0.0113
[7]; 0.03162 µM
  increase in dead-cell fraction: 0.156
[7]; 0.1 µM
  increase in dead-cell fraction: 0.192
[7]; 0.3162 µM
  increase in dead-cell fraction: 0.181
[7]; 1 µM
  increase in dead-cell fraction: 0.19
Flavopiridol [8]; 0.0001 µM
  increase in dead-cell fraction: -0.0009
Flavopiridol [8]; 0.0003162 µM
  increase in dead-cell fraction: -0.0013
Flavopiridol [8]; 0.001 µM
  increase in dead-cell fraction: -0.0022
Flavopiridol [8]; 0.003162 µM
  increase in dead-cell fraction: -0.0083
Flavopiridol [8]; 0.01 µM
  increase in dead-cell fraction: 0.0073
Flavopiridol [8]; 0.03162 µM
  increase in dead-cell fraction: 0
Flavopiridol [8]; 0.1 µM
  increase in dead-cell fraction: 0.0006
Flavopiridol [8]; 0.3162 µM
  increase in dead-cell fraction: 0.0316
Flavopiridol [8]; 1 µM
  increase in dead-cell fraction: 0.0846
